Like-named read-outs stand apart in the source and are kept apart here.
Tests used:
S. aureus 6538 = test: Synergy test, microtiter plate high resolution MIC assay, M9GY medium; type: cell-based, Staphylococcus aureus
Protocol: (§1) Synergism was determined by an industrially accepted method described by Kull, F. C.; Eisman, P. C.; Sylwestrowicz, H. D. and Mayer, R. L., in Applied Microbiology 9:538-541 (1961), using the ratio determined by the formula: Qa/QA+Qb/QB=Synergy Index (“SI”) wherein: • QA=concentration of compound A (first component) in ppm, acting alone, which produced an end point (MIC of Compound A). • Qa=concentration of compound A in ppm, in the mixture, which produced an end point. • QB=concentration of compound B (second component) in ppm, acting alone, which produced an end point (MIC of Compound B). • Qb=concentration of compound B in ppm, in the mixture, which produced an end point.
(§2) When the sum of Qa/QA and Qb/QB is greater than one, antagonism is indicated. […] The lower the SI, the greater the synergy shown by that particular mixture. The minimum inhibitory concentration (MIC) of a microbicide is the lowest concentration tested under a specific set of conditions that prevents the growth of added microorganisms.
(§3) Synergy tests were conducted using standard microtiter plate assays with media designed for optimal growth of the test microorganism. Minimal salt medium supplemented with 0.2% glucose and 0.1% yeast extract (M9GY medium) was used for testing bacteria; Potato Dextrose Broth (PDB medium) was used for testing yeast and mold. In this method, a wide range of combinations of microbicides was tested by conducting high resolution MIC assays in the presence of various concentrations of MI. High resolution MICs were determined by adding varying amounts of microbicide to one column of a microtitre plate and doing subsequent […] dilutions using an automated liquid handling system to obtain a series of endpoints ranging from 2 ppm to 10,000 ppm active ingredient. The synergy of the combinations of the present invention was determined against two bacteria, Staphylococcus aureus (S. aureus—ATCC #6538) or Pseudomonas aeruginosa (P. aeruginosa—ATCC #15442), a yeast, Candida albicans (C. albicans—ATCC 10231), and a mold, Aspergillus niger (A. niger—ATCC 16404). […]

A. niger 16404 = test: Synergy test, microtiter plate high resolution MIC assay, PDB medium; type: cell-based, Aspergillus niger
Protocol: as §1, §2, §3

[1] = system: microorganisms isolated from contaminated paint; test: Testing of synergistic combinations in paint (repeated inoculation); type: cell-based; conditions: paint pH 8.5-8.8
Protocol: A paint formulation having a pH of 8.5-8.8 was prepared from an acrylic binder, cellulosic thickener, kaolin, additives for formulation, and water. Fifty grams of the paint samples are inoculated repeatedly with microorganisms isolated from contaminated paint, with rising concentrations of inoculum. This treatment is carried out once a week. Six days after each inoculation, the surviving microorganisms are evaluated in each sample by applying onto nutrient media. These streak-outs are assessed after an incubation time of up to seven days (at 27±2° C. and 85-95% relative atmospheric humidity). An unpreserve sample of the system to be examined is used to check the susceptibility to the growth of microorganisms. Five inoculation cycles are carried out, thus leading to a test duration of six weeks. The rating scale for evaluation microbial growth is as follows: […]

P. aeruginosa 9027 = test: Synergy test, microtiter plate high resolution MIC assay, M9GY medium; type: cell-based, Pseudomonas aeruginosa
C. albicans 10231 = test: Synergy test, microtiter plate high resolution MIC assay, PDB medium; type: cell-based, Candida albicans
Protocol: as §1, §2, §3

CNC(=O)c1ccccc1SSc1ccccc1C(=O)NC [DTBMA, 2,2′-dithiobis(N-methylbenzamide)]
MIC (S. aureus 6538; Staphylococcus aureus, 6538, M9GY, 24 hours, read-out: QDTBMA (MIC of DTBMA acting alone)): 40 µg/mL | MIC (A. niger 16404; Aspergillus niger, 16404, PDB, 72 hours, read-out: QDTBMA (MIC of DTBMA acting alone)): 1500 µg/mL | growth rating >5 inoc. ([1]; 0.0 ppm MI, 152.0 ppm DTBMA (0:100)): 3 | growth rating >5 inoc. ([1]; 0.0 ppm MI, 228.0 ppm DTBMA (0:100)): 3 | MIC (P. aeruginosa 9027; Pseudomonas aeruginosa, 9027, M9GY, 72 hours, read-out: QDTBMA (MIC of DTBMA acting alone)): 1000 µg/mL | MIC (C. albicans 10231; Candida albicans, 10231, PDB, 48 hours, read-out: QDTBMA (MIC of DTBMA acting alone)): 40 µg/mL

Cn1sc2ccccc2c1=O [MBI, 2-methylbenzisothiazolone]
MIC (S. aureus 6538; Staphylococcus aureus, 6538, M9GY, 24 hours, read-out: QMBI (MIC of MBI acting alone)): 8 µg/mL | MIC (A. niger 16404; Aspergillus niger, 16404, PDB, 72 hours, read-out: QMBI (MIC of MBI acting alone)): 60 µg/mL | MIC (P. aeruginosa 9027; Pseudomonas aeruginosa, 9027, M9GY, 72 hours, read-out: QMBI (MIC of MBI acting alone)): 200 µg/mL | MIC (C. albicans 10231; Candida albicans, 10231, PDB, 48 hours, read-out: QMBI (MIC of MBI acting alone)): 8 µg/mL

Cn1sccc1=O [MI, 2-methyl-4-isothiazolin-3-one]
MIC (S. aureus 6538; Staphylococcus aureus, 6538, 24 h, read-out: QMI (MIC of MI acting alone)): 60 µg/mL | MIC (A. niger 16404; Aspergillus niger, 16404, 72 h, read-out: QMI (MIC of MI acting alone)): 400 µg/mL | growth rating >5 inoc. ([1]; 150.0 ppm MI, 0.0 ppm DTBMA (100:0)): 2/1 | MIC (P. aeruginosa 9027; Pseudomonas aeruginosa, 9027, 72 h, read-out: QMI (MIC of MI acting alone)): 25 µg/mL | MIC (C. albicans 10231; Candida albicans, 10231, 48 h, read-out: QMI (MIC of MI acting alone)): 175 µg/mL
